Experimental data reported in publication PMC11786100, “Chronic GIPR agonism results in pancreatic islet GIPR functional desensitisation” (Molecular Metabolism, 2025).

How the values were obtained:
[1] = test system: lean and HFD-induced obese mice; experiment: In vivo GIPR desensitisation: IPGTT and insulin bleeds; set-up: species or system mouse
Procedure: (§1) In all in vivo studies, mice were randomised by body weight into groups. Mice received a 50 μL subcutaneous injection of saline (0.9% sodium chloride) or peptide at a specified dose, diluted in saline. Peptide dosing was in nmol per kg of total body weight. For the assessment of the chronic effects of GIP108, mice were injected daily for 15 days. Body composition was measured by EchoMRI on day −1 and day 15. An intraperitoneal glucose tolerance test (IPGTT) (2 g/kg) was conducted on day 14, following 6 h of fasting and 2 h after peptide injection. Non-fasting plasma leptin (ab199082, Abcam, UK), adiponectin (ab226900, Abcam, UK) and amino acids (ab65347, Abcam, UK) were measured on day 16. For the assessments of in vivo GIPR desensitisation, mice were injected at 17:00 with vehicle or GIP108 (30 nmol/kg) prior to an acute food intake study/IPGTT/insulin bleeds conducted the following day. Full details of the in vivo studies are provided in the supplementary methods.
(§2) Mice were fasted at 08:00. For all studies, 20% glucose was administered at 14:00, with the injection volume adjusted to the body weight of the mouse such that each mouse received glucose at 2 g/kg. To assess effects of GIP108 on day 14 of the chronic study, mice were dosed with saline or GIP108 at a specified dose at 12:00. […] Blood glucose measurements were taken via tail vein venesection at baseline, t=15, t=30, t=60, t=90 and t=120 mins. Glucose AUC is calculated using y=0. Glucose readings were measured in mmol/L using the same GlucoRx glucometer.
Mice were fasted at 08:00. At 14:00, mice received an intraperitoneal injection with 20% glucose, with the injection volume adjusted to the body weight of the mouse such that each mouse received glucose at 2 g/kg. […] Blood samples were taken via tail vein venesection at baseline and t=15 minutes following injection.
(§3) Leptin, adiponectin and amino acids were quantified following chronic GIP108 administration. Plasma amino acids were measured using the Abcam L-amino acid assay kit (ab65347, Abcam, UK). Plasma adiponectin was measured using the Abcam mouse adiponectin ELISA kit (ab226900, Abcam, UK). Plasma leptin was measured using the Abcam mouse leptin ELISA kit (ab199082, Abcam, UK). All assays were performed according to the manufacturer’s protocol and were read using the SpectraMax i3x Microplate Reader (Molecular Devices, US).

[2] = test system: β2-adrenergic receptor; experiment: Ex vivo islet heterologous desensitisation, isoproterenol rechallenge cAMP; type: cell-based, mouse; settings: 24-hour pre-treatment with GIP108 (1 μM); dispersed islets, cADDis, n=3
Procedure: Primary cultures of mouse hypothalamic neurons and dispersed pancreatic islets were transduced with the Green Up cADDis biosensor (Montana Molecular, US). Pancreatic islets from CAMPER^Pdx−1-CreERT2 and CAMPER^Som-Cre mice were not transduced. Cells were pre-treated with peptides as specified, dissolved in culture media. Following 4 h or overnight incubation and a 1-hour washout period, cells were imaged using an epifluorescence microscope at baseline (t = 3 min), following peptide addition (t = 10 min, unless specified otherwise), and following 3-isobutyl-1-methylxanthine (IBMX) (500 μM) and forskolin (FSK) (50 μM) addition (t = 3 min) to maximally stimulate the sensor. In pre-treatment experiments, islet cell fluorescence was normalised to the IBMX/FSK response which was set as 100%. In non-pre-treatment experiments, islet and neuronal cell fluorescence was normalised to both the baseline and IBMX/FSK response. The area-under-the-curve (AUC) for each cell was quantified. […]
cAMP quantification from the raw islet/neuronal images was performed using Fiji v1.54f (NIH). […] The fluorescence intensity of each ROI was measured at each time point. In pre-treatment experiments, islet cell fluorescence was normalised to the maximal IBMX/FSK response which was set as 100%. […] The AUC during peptide stimulation for each cell was quantified. […]

[3] = test system: HFD-induced obese mice; experiment: Chronic GIP108 administration to HFD-induced obese mice; type: in vivo, mouse; settings: for body weight / food intake: n = 9–10/group
Procedure: as §1
HFD-induced obese mice (mean starting weight of 43.4 g) received daily injection of saline, GIP108 (30 nmol/kg) and GIP108 (100 nmol/kg) (n=9-10/group) for 15 days. Mice were injected between 16:00 and 17:00, before the beginning of the natural feeding period. Food intake and body weight were measured daily for the entirety of the study. Fat mass and lean mass were calculated on day -1 and day 15. An intraperitoneal glucose tolerance test (IPGTT) was conducted on day 14. On this day, mice received their daily injection of peptide at midday rather than between 16:00 and 17:00. The mice were culled on day 16 via decapitation to allow for collection of large volumes of blood for plasma analysis.
as §2
Body composition was measured using an EchoMRI^TM machine. This allows for the measurement of lean mass, fat mass and water mass. The mass was recorded in grams. Mice were restrained in a red Perspex tube which was then inserted into the EchoMRI^TM machine. Each scan took 160 seconds. The tube was cleaned between animals to minimise stress.
as §3

[4] = 30 nmol/kg daily s.c. over two weeks
[5] = 100 nmol/kg daily s.c. over two weeks, EchoMRI
[6] = 100 nmol/kg daily s.c. over two weeks
[7] = 30 or 100 nmol/kg daily s.c., fed state 16 h after last injection

CC[C@H](C)[C@H](NC(=O)[C@H](CO)NC(=O)[C@H](Cc1ccc(O)cc1)NC(=O)[C@H](CC(=O)O)NC(=O)[C@H](CO)NC(=O)[C@@H](NC(=O)[C@H](Cc1ccccc1)NC(=O)[C@@H](NC(=O)CNC(=O)[C@H](CCC(=O)O)NC(=O)C(C)(C)NC(=O)[C@@H](N)Cc1ccc(O)cc1)[C@@H](C)O)[C@@H](C)CC)C(=O)N[C@@H](C)C(=O)N[C@@H](CC(C)C)C(=O)N[C@@H](CC(=O)O)C(=O)N[C@@H](CCCCN)C(=O)N[C@H](C(=O)N[C@@H](Cc1c[nH]cn1)C(=O)N[C@@H](CCC(N)=O)C(=O)N[C@@H](CCC(N)=O)C(=O)N[C@@H](CC(=O)O)C(=O)N[C@@H](Cc1ccccc1)C(=O)N[C@H](C(=O)N[C@@H](CC(N)=O)C(=O)N[C@@H](Cc1c[nH]c2ccccc12)C(=O)N[C@@H](CC(C)C)C(=O)N[C@@H](CC(C)C)C(=O)N[C@@H](C)C(=O)N[C@@H](CCC(N)=O)C(=O)N[C@@H](CCCCN)C(=O)NCC(=O)N[C@@H](CCCCNC(=O)CC[C@H](NC(=O)CCCCCCCCCCCCCCCCCCC(=O)O)C(=O)O)C(=O)N[C@@H](CCCCN)C(=O)N[C@@H](CC(N)=O)C(=O)N[C@@H](CC(=O)O)C(=O)N[C@@H](Cc1c[nH]c2ccccc12)C(=O)N[C@@H](CCCCN)C(=O)N[C@@H](Cc1c[nH]cn1)C(=O)N[C@@H](CC(N)=O)C(=O)N[C@H](C(=O)N[C@H](C(=O)N[C@@H](CCC(N)=O)C(=O)O)[C@@H](C)O)[C@@H](C)CC)C(C)C)[C@@H](C)CC [GIP108]
effect of GIP108 pre-treatment on hGIP (50 nmol/kg) improvement of glucose tolerance ([1]; GIP108 30 nmol/kg s.c. 21 h prior to IPGTT, lean and HFD-induced obese mice, n = 14–16): ability to improve glucose tolerance was reduced | plasma insulin response to GIP/glucose administration after GIP108 pre-treatment ([1]; GIP108 30 nmol/kg s.c. 21 h prior, hGIP 50 nmol/kg, 15 min, lean mice, n = 8): blunted | cAMP response to isoproterenol (1 μM) after GIP108 pre-treatment [2]: remained intact | fat mass ([3]; 30 nmol/kg daily s.c. over two weeks, EchoMRI): not 30 nmol/kg | body weight [3, 4]: had no effect on body weight | food intake [3, 4]: not 30 nmol/kg | fat mass [3, 5]: significantly lowered | lean mass [3, 5]: without reductions in lean mass | body weight [3, 6]: significantly lowered | food intake [3, 6]: significantly lowered | intraperitoneal glucose tolerance ([3]; 30 and 100 nmol/kg daily s.c., IPGTT 2 g/kg on day 14, 2 h after injection): dose-dependent improvement | fasting glucose ([3]; 30 and 100 nmol/kg daily s.c., day 14, 2 h after injection): dose-dependent improvement | plasma adiponectin [3, 7]: increased plasma adiponectin | plasma amino acid levels [3, 7]: had no impact | plasma leptin [3, 7]: reduced plasma leptin
